Laboratory results: patent publication US20050245452A1, “Pharmaceutical use of novispirins” (Novozymes A/S, priority 2004, published 2005)

Assays:
[1] = tested on: IFN-γ, TNF-α, IL4, IL-6 and IL-10 in lung supernatants; experiment: Lung cytokine response (ELISA of lung supernatants) in P. aeruginosa lung infection in rats; type: in vivo, Lewis rat; parameters: Lung cytokine responses (Mean + SD): IL-4 / Lung cytokine responses (Mean + SD): IL-6 / Lung cytokine responses (Mean + SD): IL-10 / Lung cytokine responses (Mean + SD): IFN-gamma / Lung cytokine responses (Mean + SD): TNF-alpha: unit not given here
Description: The bacterial strain, Pseudomonas aeruginosa, used in the study is CF86/57388A (1997), which is isolated from a cystic fibrosis patient and keeps stable mucoid phenotype. The rat strain used in the study is Lewis rat (7 weeks old, female) imported from Germany. Both bacterial challenge and drug administration were done intratracheally. All rats were challenged with mucoid P. aeruginosa in alginate. The concentration of the bacteria was 1×10^10 CFU/ml and each rat received 0.1 ml (1×10^9 CFU) bacteria. Control group received placebo (sterile saline, 0.1 ml/rat) twice at hour 0 and 3, and the Novispirin G10 group received the peptide (0.1 mg/ml, 0.1 ml/rat) twice at hour 0 and 3. The animals were sacrificed on day 3, 5, 7 and 10 after challenge for parameters evaluation. Supernatants of the lungs were harvested from days 3, 5 and 7 after lung infection and treatment. Interferon-gamma (IFN-γ), tumor necrosis factor-alpha (TNF-α), interleukin4 (IL4), IL-6 and IL-10 were measured by using ELISA kits (Nordic BioSite, Sweden).

[2] = tested on: P. acnes (erythromycin sensitive); experiment: MIC on Propionebacterium acnes, erythromycin sensitive strain; type: cell-based
Description: (§1) Minimal Inhibitory Concentration (MIC) of Novispirin G10 (SEQ ID NO: 16) was evaluated against P. acnes. Two strains were tested—one of which is clinically resistant to clindamycin and erythromycin.

[3] = tested on: P. acnes (erythromycin resistant); experiment: MIC on Propionebacterium acnes, erythromycin resistant strain; type: cell-based; conditions: clinically resistant to clindamycin and erythromycin
Description: as §1

[4] = tested on: Pseudomonas aeruginosa (ATCC 27853); experiment: Pseudomonas aeruginosa wound infection in pigs (wound chambers, 4 hour time course); type: in vivo, Göttinger minipigs
Description: The bacterial strain, Pseudomonas aeruginosa, used in the study was ATCC 27853. The amino acid sequence of Novispirin G10 is shown in SEQ ID NO: 16.
Novispirin G10 was diluted in 0.01% acetic acid containing 0.1% BSA with a final concentration of 1 mg (substrate)/ml (solution); 100 micrograms/ml and 10 micrograms/ml. The carrier control was 0.01% acetic acid containing 0.1% BSA.
The chambers are made out of titanium, have a screw top cover (also made out of titanium) and have an inner diameter of 25 mm.
After providing permission to conduct experiments with vertebrates in compliance with German animal protection laws, Göttinger minipigs (Fa. Ellegaard, Dalmose, Denmark, male, No. 86242 and 86260, 12 months old, 35 kg weight) were chosen to implant the chambers on. The pigs were kept at least 2 weeks in the stable, fed a standard porcine diet and housed at 20° C. to 30° C. in an atmosphere of approximately 65% humidity with a light cycle of 12 hours on and 12 hours off. The pig used for this study appeared during the experiments clinically healthy—rectal temperature and body weight remained normal over the observed period.
Before wounding the skin was surgically prepared, washed with soap and desinfected with Octenisept (S&M, Norderstedt, Germany) for five minutes. Twelve wound chambers were implanted on the pigs back and flank between the base of the scapula and the iliac crest. The wounds were spaced a minimum of 5 cm apart and were created in four rows parallel to the columna vertebralis, two rows on each side of the columna vertebralis. The exact size and shape of the wounds were ensured by a special custom-made “round-scalpel”, which has a diameter of 33 mm. Epidermal, dermal subcutaneous tissue was removed, possible bleedings stanched by bipolar diathermy. The chambers were placed with an additionally secant v-incision at positions 6 respectively 12 o'clock on the musculus thoracicus longus fascia and the muscle fascia of the external ripcage muscles. The incisions were sutured with 4-0 Prolene followed by the closure of the chambers. Povidone-iodine salve (Betaisodonna-salve, Mundipharma, Austria) was smothered on the wound edges. The chambers were dressed with paraffin gauze (Jelonet, Smith & Nephew, Lohfelden, Germany) and sterile compresses (Johnson & Johnson, Gargrave, UK). Dressings were changed every second day under sedation (as described above).
Bacterial Background of each chamber was measured every second day to detect potential contamination. One contaminated chamber was detected. Eight days post operation all chambers were inoculated with bacteria.
For bacteria progeny, Pseudomonas aeruginosa (ATCC 27853) was plated on LB-Agar plates and incubated at 37° C. for 18 hours. One colony was picked, and transferred into 3 ml LB-Medium and grown over night at 37° C. at 300 rpm. The over night culture was diluted in 50 ml fresh LB-Medium and incubated for 2.5 hours at 37° C. at 200 rpm.
Bacteria were centrifuged at 4000 rpm, 5 min (Mergafuge 1.0 R, Heraeus, Hanau, Germany), and the pellet was resuspended in PBS. The amount of containing bacteria was determined by OD600 nm-measurement and calculated as follows: Colony forming Unit/ml=OD600 nm×2.5×10^8 (bacteria)
To inoculate one chamber, 5×10^8CFU were used.
The establishment of the infection was proven by the measurment of bacterial counts per chamber. All inoculated chambers were infected after two days.
At fourth day post infection, the antimicrobial effect of the testing substrate was measured in a time course of 4 hours in duration. Each chamber was cleaned before starting the time course, wound fluid was selected and blood clots were discarded. Before starting the time course each chamber was inoculated again with 1×10^8 CFU Pseudomonas aeruginosa to get an equal bacterial amount for each chamber. One ml of the prepared samples with diluted test substrate and carrier control were applied in selected chambers.
Each chamber was rinsed with the applied solution several times. […]

Novispirin G10: novispirin antimicrobial polypeptide; amino acid sequence shown in SEQ ID NO: 16 (KNLRRIIRKGIHIIKKYG; Synthetic antimicrobial peptide)
Lung cytokine responses (Mean + SD): IFN-gamma ([1]; Day 3, lung supernatant): 65.3 ± 28.6
Lung cytokine responses (Mean + SD): IL-4 ([1]; Day 3, lung supernatant): 34.5 ± 4.5
Lung cytokine responses (Mean + SD): IL-6 ([1]; Day 3, lung supernatant): 74.1 ± 10.0
Lung cytokine responses (Mean + SD): IL-10 ([1]; Day 3, lung supernatant): 51.7 ± 2.6
Lung cytokine responses (Mean + SD): TNF-alpha ([1]; Day 3, lung supernatant): 159.2 ± 23.8
Lung cytokine responses (Mean + SD): IFN-gamma ([1]; Day 5, lung supernatant): 116.6 ± 42.1
Lung cytokine responses (Mean + SD): IL-4 ([1]; Day 5, lung supernatant): 45.3 ± 5.9
Lung cytokine responses (Mean + SD): IL-6 ([1]; Day 5, lung supernatant): 65.2 ± 11.1
Lung cytokine responses (Mean + SD): IL-10 ([1]; Day 5, lung supernatant): 57.8 ± 7.6
Lung cytokine responses (Mean + SD): TNF-alpha ([1]; Day 5, lung supernatant): 128.1 ± 19.0
Lung cytokine responses (Mean + SD): IFN-gamma ([1]; Day 7, lung supernatant): 79.9 ± 16.2
Lung cytokine responses (Mean + SD): IL-4 ([1]; Day 7, lung supernatant): 37.3 ± 5.9
Lung cytokine responses (Mean + SD): IL-6 ([1]; Day 7, lung supernatant): 61.5 ± 11.0
Lung cytokine responses (Mean + SD): IL-10 ([1]; Day 7, lung supernatant): 51.3 ± 2.9
Lung cytokine responses (Mean + SD): TNF-alpha ([1]; Day 7, lung supernatant): 121.8 ± 19.6
All 5 kinds of cytokine levels compared to the control group ([1]; day 3, early phase of the infection): significantly lower
Minimal Inhibitory Concentration (MIC) [2]: 2
Minimal Inhibitory Concentration (MIC) [3]: 1
Mean CFU per ml sample volume (chamber fluid) ([4]; 1 mg applied (1 ml of 1 mg/ml), 0.05 hours): 667 CFU/ml
Mean CFU per ml sample volume (chamber fluid) ([4]; 1 mg applied (1 ml of 1 mg/ml), 1 hour): 1933 CFU/ml
Mean CFU per ml sample volume (chamber fluid) ([4]; 1 mg applied (1 ml of 1 mg/ml), 2 hours): 1167 CFU/ml
Mean CFU per ml sample volume (chamber fluid) ([4]; 1 mg applied (1 ml of 1 mg/ml), 3 hours): 517 CFU/ml
Mean CFU per ml sample volume (chamber fluid) ([4]; 1 mg applied (1 ml of 1 mg/ml), 4 hours): 733 CFU/ml
Mean CFU per ml sample volume (chamber fluid) ([4]; 10 micrograms applied (1 ml of 10 micrograms/ml), 0.05 hours): 413869 CFU/ml
Mean CFU per ml sample volume (chamber fluid) ([4]; 10 micrograms applied (1 ml of 10 micrograms/ml), 1 hour): 1225733 CFU/ml
Mean CFU per ml sample volume (chamber fluid) ([4]; 10 micrograms applied (1 ml of 10 micrograms/ml), 2 hours): 34811 CFU/ml
Mean CFU per ml sample volume (chamber fluid) ([4]; 10 micrograms applied (1 ml of 10 micrograms/ml), 3 hours): 9612 CFU/ml
Mean CFU per ml sample volume (chamber fluid) ([4]; 10 micrograms applied (1 ml of 10 micrograms/ml), 4 hours): 17322 CFU/ml
Mean CFU per ml sample volume (chamber fluid) ([4]; 100 micrograms applied (1 ml of 100 micrograms/ml), 0.05 hours): 7383 CFU/ml
Mean CFU per ml sample volume (chamber fluid) ([4]; 100 micrograms applied (1 ml of 100 micrograms/ml), 1 hour): 138181 CFU/ml
Mean CFU per ml sample volume (chamber fluid) ([4]; 100 micrograms applied (1 ml of 100 micrograms/ml), 2 hours): 167413 CFU/ml
Mean CFU per ml sample volume (chamber fluid) ([4]; 100 micrograms applied (1 ml of 100 micrograms/ml), 3 hours): 11661 CFU/ml
Mean CFU per ml sample volume (chamber fluid) ([4]; 100 micrograms applied (1 ml of 100 micrograms/ml), 4 hours): 2467 CFU/ml
